Measurements taken from patent US9328374B2, “Selective culture medium and method for detecting carbapenem-resistant bacteria in a test sample” (Institut National de la Sante et de la Recherche Medicale …, priority 2011, dated 2016).
Read-outs that look alike come from different tables or passages of the source.

Tested on: K. pneumoniae
Assay: MIC of imipenem, ertapenem and meropenem
Type: cell-based, Klebsiella pneumoniae
Conditions: Klebsiella pneumoniae, read-out: MIC

C[C@@H](O)[C@H]1C(=O)N2C(C(=O)O)=C(S[C@@H]3CN[C@H](C(=O)Nc4cccc(C(=O)O)c4)C3)[C@H](C)[C@H]12 [ETP, ertapenem]
MIC (K. pneumoniae KPN (CTX-M-15)): 0.12 µg/mL
MIC (K. pneumoniae KPN, CTX-M-15, non-carbapenemase producer): 0.012 µg/mL
MIC (K. pneumoniae LEG (CTX-M-15 + TEM-1 + SHV-12)): > 32 µg/mL
MIC (K. pneumoniae LEG, CTX-M-15 + TEM-1 + SHV-12, non-carbapenemase producer, porin deficiency): > 32 µg/mL
MIC (K. pneumoniae LIB (OXA-48)): > 32 µg/mL
MIC (K. pneumoniae LIB, OXA-48): 16 µg/mL
MIC (K. pneumoniae LIE, KPC-2 + TEM-2 + OXA-9): > 32 µg/mL
MIC (K. pneumoniae LOU, OXA-48): 16 µg/mL
MIC (K. pneumoniae MAD (VIM-1 + CTX-M-3)): 0.5 µg/mL
MIC (K. pneumoniae MAD, VIM-1+ CTX-M-3): 0.5 µg/mL
MIC (K. pneumoniae MEK (CTX-M-15 + SHV-11)): > 32 µg/mL
MIC (K. pneumoniae MEK, CTX-M-15 + SHV-11, non-carbapenemase producer, porin deficiency): > 32 µg/mL
MIC (K. pneumoniae MUS (KPC-2 + TEM-1 + SHV-11 + SHV-12)): 4 µg/mL
MIC (K. pneumoniae MUS, KPC-2 + TEM-1 + SHV-11 + SHV-12): 4 µg/mL
MIC (K. pneumoniae OM2 (NDM-1 + TEM-1 + CTX-M-3 + SHV-11 + OXA-1)): 8 µg/mL
MIC (K. pneumoniae OM2, NDM-1 + TEM-1 + CTX-M-3 + SHV-11 + OXA-1): 8 µg/mL
MIC (K. pneumoniae OM4, NDM-1 + TEM-1 + CTX-M-15 + SHV-12 + OXA-9): > 32 µg/mL
MIC (K. pneumoniae OM8, NDM-1 + TEM-1 + CTX-M-15 + SHV-11 + OXA-1): > 32 µg/mL
MIC (K. pneumoniae OM11, OXA-48 + TEM-1 + CTX-M-14): 0.75 µg/mL
MIC (K. pneumoniae OM13, NDM-1 + TEM-1 + CTX-M-15 + SHV-28 + OXA-1 + OXA-9): 4 µg/mL
MIC (K. pneumoniae OM14, OXA-48 + TEM-1): 1 µg/mL
MIC (K. pneumoniae OM15, NDM-1 + CTX-M-15 + SHV-130 + OXA-1): 12 µg/mL
MIC (K. pneumoniae OM16, NDM-1 + CTX-M-15 + OXA-1 + OXA-181): > 32 µg/mL
MIC (K. pneumoniae OM19, NDM-1 + CTX-M-15 + SHV-12 + OXA-1): 24 µg/mL
MIC (K. pneumoniae OMA419 (NDM-1 + OXA-1)): 6 µg/mL
MIC (K. pneumoniae OMA419, NDM-1 + OXA-1): 6 µg/mL
MIC (K. pneumoniae OMA601, NDM-1 + CTX-M-15 + OXA-1 + OXA-9): > 32 µg/mL
MIC (K. pneumoniae OMA (OXA-181 + CTX-M-15 + OXA-1)): 2 µg/mL
MIC (K. pneumoniae OMA, OXA-181 + CTXM-15 + OXA-1): 2 µg/mL
MIC (K. pneumoniae RAM (OXA-48)): 4 µg/mL
MIC (K. pneumoniae RAM, OXA-48): 4 µg/mL
MIC (K. pneumoniae ROB (OXA-48 + CTX-M-15 + TEM-1)): 3 µg/mL
MIC (K. pneumoniae ROU (OXA-48 + CTX-M-15)): 1.5 µg/mL
MIC (K. pneumoniae ROU, OXA-48 + CTX-M-15): 1.5 µg/mL
MIC (K. pneumoniae SCO (OXA-48)): 0.75 µg/mL
MIC (K. pneumoniae SCO, OXA-48): 0.75 µg/mL
MIC (K. pneumoniae SHI (CTX-M-15 + TEM-1 + SHV-1)): 1 µg/mL
MIC (K. pneumoniae SHI, CTX-M-15 + TEM-1 + SHV-11, non-carbapenemase producer, porin deficiency): 1 µg/mL
MIC (K. pneumoniae SHM (CTX-M-15 + TEM-1 + SHV-11)): > 32 µg/mL
MIC (K. pneumoniae SHM, CTX-M-15 + TEM-1 + SHV-11, non-carbapenemase producer, porin deficiency): > 32 µg/mL
MIC (K. pneumoniae SIC (OXA-48 + CTX-M-15 + SHV-28)): 1 µg/mL
MIC (K. pneumoniae SIC, OXA-48 + CTX-M-15 + SHV-28): 1 µg/mL
MIC (K. pneumoniae SIM (CTX-M-15 + TEM-1 + SHV-1)): > 32 µg/mL
MIC (K. pneumoniae SIM, CTX-M-15 + TEM-1 + SHV-1, non-carbapenemase producer, porin deficiency): > 32 µg/mL
MIC (K. pneumoniae TAW, IMP-8 + SHV-12): 0.5 µg/mL
MIC (K. pneumoniae TIK, OXA-48): 2 µg/mL
MIC (K. pneumoniae TUR (IMP-1)): 2 µg/mL
MIC (K. pneumoniae TUR, IMP-1): 2 µg/mL
MIC (K. pneumoniae TWA, IMP-8): 1 µg/mL
MIC (K. pneumoniae UK (NDM-1 + CTX-M-15 + CMY-4 + OXA-1)): > 32 µg/mL
MIC (K. pneumoniae UK, NDM-1 + CTX-M-15 + CMY-4 + OXA-1): > 32 µg/mL
MIC (K. pneumoniae VER, OXA-48 + TEM-1 + CTX-M-15 + SHV-11): 2 µg/mL
MIC (K. pneumoniae VSG (OXA-48 + TEM-1 + CTX-M-15 + OXA-1)): 3 µg/mL
MIC (K. pneumoniae VSG, OXA-48 + TEM-1 + CTX-M-15 + OXA-1): 3 µg/mL
MIC (K. pneumoniae YC, KPC-2 + TEM-1 + SHV-11 + SHV-12 + OXA-9): 24 µg/mL
MIC (strain K. pneumoniae 7725, SHV-1, non-carbapenemase producer): 0.006 µg/mL
MIC (strain K. pneumoniae 648236, SHV-2a, non-carbapenemase producer): 2 µg/mL
MIC (strain K. pneumoniae ALE, CTX-M-15 + SHV-1, non-carbapenemase producer): > 32 µg/mL
MIC (strain K. pneumoniae AMS, OXA-48 + TEM-1 + CTX-M-15 + OXA-1): 2 µg/mL
MIC (strain K. pneumoniae BAJ, OXA-48 + TEM-1 + CTX-M-15 + SHV-28): 1.5 µg/mL
MIC (strain K. pneumoniae BED, CTX-M-15 + TEM-1 + SHV-11, non-carbapenemase producer): > 32 µg/mL
MIC (strain K. pneumoniae BEL, OXA-48): 4 µg/mL
MIC (strain K. pneumoniae BEN, OXA-48 + TEM-1 + CTX-M-15 + SHV-28): 1 µg/mL
MIC (strain K. pneumoniae BER, SHV-28 + TEM-1, non-carbapenemase producer): 4 µg/mL
MIC (strain K. pneumoniae ELK, OXA-48 + TEM-1 + CTX-M-15 + SHV-11): 3 µg/mL
MIC (strain K. pneumoniae HOL, OXA-181 + CTX-M-15): 4 µg/mL
MIC (strain K. pneumoniae MUS, KPC-2 + TEM-1 + SHV-11 + SHV-12): 4 µg/mL
MIC (strain K. pneumoniae OM2, NDM-1 + TEM-1 + CTX-M-3 + SHV-11 + OXA-1): 8 µg/mL
MIC (strain K. pneumoniae OMA419, NDM-1 + OXA-1): 6 µg/mL
MIC (strain K. pneumoniae OMA, OXA-181 + CTXM-15 + OXA-1): 2 µg/mL
MIC (strain K. pneumoniae ROU, OXA-48 + CTX-M-15): 1.5 µg/mL
MIC (strain K. pneumoniae SCO, OXA-48): 0.75 µg/mL
MIC (strain K. pneumoniae SIC, OXA-48 + CTX-M-15 + SHV-28): 1 µg/mL
MIC (strain K. pneumoniae VSG, OXA-48 + TEM-1 + CTX-M-15 + OXA-1): 3 µg/mL
